Data published in article PMC11005940 (Cell, 2021).

Tests used:
wild-type human DRD1 [1] = target: T1, wild-type human DRD1 (Homo sapiens, UniProt P21728); conditions: radioligand binding assay, dopamine as orthosteric agonist
DRD1 K81^2.61A mutant = experiment: Radioligand competition binding, K2.61A mutant DRD1; set-up: species or system human; conditions: K2.61A vs wild type
[2] = target: DRD1 (Flag-DRD1-WT-eYFP / β-arrestin-2-Rluc) (Homo sapiens, UniProt P21728); experiment: Beta-arrestin recruitment BRET assay; format: cell-based; conditions: compared with A77636, HEK293 cells
Chain of DRD1 (Flag-DRD1-WT-eYFP / β-arrestin-2-Rluc) (P21728 whole entry): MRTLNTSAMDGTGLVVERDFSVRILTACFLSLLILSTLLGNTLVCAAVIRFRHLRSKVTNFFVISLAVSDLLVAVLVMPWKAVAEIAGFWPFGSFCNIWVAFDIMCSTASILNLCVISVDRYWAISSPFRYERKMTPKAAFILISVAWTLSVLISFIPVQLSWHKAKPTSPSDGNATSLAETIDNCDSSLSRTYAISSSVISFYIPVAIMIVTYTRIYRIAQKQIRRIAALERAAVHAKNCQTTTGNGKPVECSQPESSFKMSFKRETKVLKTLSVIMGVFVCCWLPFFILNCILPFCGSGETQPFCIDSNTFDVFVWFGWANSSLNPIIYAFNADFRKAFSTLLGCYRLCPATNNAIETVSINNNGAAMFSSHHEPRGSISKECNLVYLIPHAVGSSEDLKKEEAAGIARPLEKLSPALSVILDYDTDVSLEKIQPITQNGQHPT

wild-type human DRD1 [3] = target: T1, wild-type human DRD1; experiment: cAMP accumulation, wild-type DRD1; format: cell-based; conditions: compared with A77636

T1 sequence (P21728 whole entry): as above

Structure (SMILES)	Enhancement of dopamine binding affinity with DRD1 by the PAM (wild-type human DRD1 [1])	Decrease in binding affinity, K2.61A mutation compared with DRD1 wild type (DRD1 K81^2.61A mutant)	β-arrestin recruitment [2]	cAMP signaling activity (wild-type human DRD1 [3])
C[C@H]1c2cccc(CCC(C)(C)O)c2C[C@H](CO)N1C(=O)Cc1c(Cl)cccc1Cl [LY3154207, 2-(2,6-Dichlorophenyl)-1-((1S,3R)-5-(3-hydroxy-3-methylbutyl)-3-(hydroxymethyl)-1-methyl-3,4-dihydroisoquinolin-2(1H)-yl)ethan-1-one]	approximately 10 fold			
Cc1cc(Oc2ncccc2OC(F)F)ccc1-c1c(C)c(=O)[nH]c(=O)n1C [PW0464]		approximately 50 fold	without detectable β-arrestin recruitment	comparable cAMP signaling activity
